{"source": "ChEMBL document CHEMBL1124608", "about": "“Synthesis of acylguanidine analogues: inhibitors of ADP-induced platelet aggregation” (J Med Chem, 1989)", "key": {"[1]": {"assay": "Concentration required to inhibit in vitro ADP-induced platelet aggregation in human platelet rich plasma relative PGE1", "format": "functional"}, "[2]": {"assay": "Inhibitory concentration required to inhibit ADP-induced platelet aggregation in human platelet rich plasma", "format": "functional, cell-free"}, "Rattus norvegicus [3]": {"system": "Rattus norvegicus", "assay": "ADP-induced platelet aggregation activity was tested for oral activity in rats at dose 100 mg/kg", "format": "functional"}, "Cavia porcellus [4]": {"system": "Cavia porcellus", "assay": "ADP-induced platelet aggregation activity was tested for oral activity in guinea pigs at dose 100 mg/kg", "format": "functional"}, "Rattus norvegicus [5]": {"system": "Rattus norvegicus", "assay": "ADP-induced platelet aggregation activity was tested for oral activity in rats at dose 30 mg/kg", "format": "functional"}, "[6]": {"assay": "Inhibitory activity against ADP-induced platelet aggregation at concentration 3.2 ug/mL", "format": "functional, Homo sapiens"}, "Homo sapiens [7]": {"species_on_record": "Homo sapiens", "assay": "Activity against PRP following incubation for 30 min in human whole blood; Active", "format": "functional, tissue-based"}, "[8]": {"assay": "Inhibitory activity against ADP-induced platelet aggregation at concentration 10 ug/mL", "format": "functional, Homo sapiens", "conditions": "for inhibition at 10 µg/mL: Homo sapiens"}, "[9]": {"assay": "Inhibitory activity against ADP-induced platelet aggregation at concentration 1.0 ug/mL", "format": "functional", "conditions": "Homo sapiens"}, "Cavia porcellus [10]": {"system": "Cavia porcellus", "assay": "ADP-induced platelet aggregation activity was tested for oral activity in guinea pigs at dose 50 mg/kg"}, "[11]": {"assay": "Inhibitory activity against ADP-induced platelet aggregation at concentration 10 ng/mL", "format": "functional, Homo sapiens"}, "[12]": {"assay": "Inhibitory activity against ADP-induced platelet aggregation at concentration 32 ng/mL", "format": "functional, Homo sapiens"}, "Homo sapiens [13]": {"species_on_record": "Homo sapiens", "assay": "Activity against PRP following incubation for 30 min in human whole blood; Inactive", "format": "functional, tissue-based"}, "Cavia porcellus [14]": {"system": "Cavia porcellus", "assay": "ADP-induced platelet aggregation activity was tested for oral activity in guinea pigs at dose 50 mg/kg", "format": "functional"}, "Rattus norvegicus [15]": {"system": "Rattus norvegicus", "assay": "ADP-induced platelet aggregation activity was tested for oral activity in rats at dose 50 mg/kg", "format": "functional"}, "Rattus norvegicus [16]": {"system": "Rattus norvegicus", "assay": "ADP-induced platelet aggregation activity was tested for oral activity in rats at dose 25 mg/kg", "format": "functional"}, "[17]": {"assay": "Inhibitory activity against ADP-induced platelet aggregation at concentration 1 ug/mL", "format": "functional, Homo sapiens"}, "Cavia porcellus [18]": {"system": "Cavia porcellus", "assay": "ADP-induced platelet aggregation activity was tested for oral activity in guinea pigs at dose 30 mg/kg", "format": "functional"}}, "note": "Several values for one entry are separate records, joined by “and”; a condition that tells them apart may be missing. Equal values may be shown once. Activity calls are given as the source filed them. No cut-off for these calls is given here.", "data": [{"smiles": "O=C(N1CCN(C(=O)N(/C(=N/C2CCCCC2)N2CCOCC2)C2CCCCC2)CC1)N(/C(=N/C1CCCCC1)N1CCOCC1)C1CCCCC1", "values": [{"measurement": "Relative potency", "setting": "[1]", "result": 0.001}, {"measurement": "IC50", "setting": "[2]", "result": 10, "unit": "µg/mL"}, {"measurement": "Aggregation", "setting": "Rattus norvegicus [3]", "result": 44.8, "unit": "%"}]}, {"smiles": "O=C(NCCCCNC(=O)N(C(=NC1CCCCC1)N1CCOCC1)C1CCCCC1)N(C(=NC1CCCCC1)N1CCOCC1)C1CCCCC1", "values": [{"measurement": "Relative potency", "setting": "[1]", "result": 0.001}, {"measurement": "IC50", "setting": "[2]", "result": 10, "unit": "µg/mL"}, {"measurement": "Aggregation", "setting": "Rattus norvegicus [3]", "result": 73.5, "unit": "%"}]}, {"smiles": "CN(CCCCCCN(C)C(=O)N(C(=NC1CCCCC1)N1CCOCC1)C1CCCCC1)C(=O)N(C(=NC1CCCCC1)N1CCOCC1)C1CCCCC1", "values": [{"measurement": "Aggregation", "setting": "Cavia porcellus [4]", "result": 41, "unit": "%"}, {"measurement": "Aggregation", "setting": "Rattus norvegicus [5]", "result": 81.2, "unit": "%"}, {"measurement": "Relative potency", "setting": "[1]", "result": 0.003}, {"measurement": "IC50", "setting": "[2]", "result": 3.2, "unit": "µg/mL"}, {"measurement": "Aggregation", "setting": "Rattus norvegicus [3]", "result": 52, "unit": "%"}]}, {"smiles": "O=C(NCc1cccc(CNC(=O)N(C(=NC2CCCCC2)N2CCOCC2)C2CCCCC2)c1)N(C(=NC1CCCCC1)N1CCOCC1)C1CCCCC1", "values": [{"measurement": "inhibition at 3.2 µg/mL", "setting": "[6]; Homo sapiens", "result": 40, "unit": "%"}, {"measurement": "Activity", "setting": "Homo sapiens [7]", "result": "Active"}, {"measurement": "inhibition at 10 µg/mL", "setting": "[8]", "result": 68, "unit": "%"}, {"measurement": "Relative potency", "setting": "[1]", "result": 0.003}, {"measurement": "inhibition at 1 µg/mL", "setting": "[9]", "result": 27, "unit": "%"}, {"measurement": "IC50", "setting": "[2]", "result": 3.2, "unit": "µg/mL"}, {"measurement": "Aggregation", "setting": "Cavia porcellus [10]", "result": 19.3, "unit": "%"}]}, {"smiles": "Cl.Cl.O=C(NCCCCCCNC(=O)N(/C(=N/C1CCCCC1)N1CCOCC1)C1CCCCC1)N(/C(=N\\C1CCCCC1)N1CCOCC1)C1CCCCC1", "values": [{"measurement": "Relative potency", "setting": "[1]", "result": 0.001}, {"measurement": "IC50", "setting": "[2]", "result": 10, "unit": "µg/mL"}, {"measurement": "Aggregation", "setting": "Rattus norvegicus [3]", "result": 84.5, "unit": "%"}]}, {"smiles": "CCCCC[C@H](O)/C=C/[C@H]1[C@H](O)CC(=O)[C@@H]1CCCCCCC(=O)O", "note": "[ALPROSTADIL]", "values": [{"measurement": "Inhibition", "setting": "[11]", "result": "56% and 28% and 37%"}, {"measurement": "Relative potency", "setting": "[1]", "result": 1}, {"measurement": "Inhibition", "setting": "[12]", "result": "94% and 90% and 72%"}, {"measurement": "IC50", "setting": "[2]", "result": 0.01, "unit": "µg/mL"}]}, {"smiles": "O=C(NCc1cc(CNC(=O)N(C(=NC2CCCCC2)N2CCOCC2)C2CCCCC2)cc(CNC(=O)N(C(=NC2CCCCC2)N2CCOCC2)C2CCCCC2)c1)N(C(=NC1CCCCC1)N1CCOCC1)C1CCCCC1", "values": [{"measurement": "Activity", "setting": "Homo sapiens [13]", "result": "inactive"}, {"measurement": "Relative potency", "setting": "[1]", "result": 0.001}, {"measurement": "IC50", "setting": "[2]", "result": 10, "unit": "µg/mL"}]}, {"smiles": "O=C(NCCCCCCCNC(=O)N(C(=NC1CCCCC1)N1CCOCC1)C1CCCCC1)N(C(=NC1CCCCC1)N1CCOCC1)C1CCCCC1", "values": [{"measurement": "Relative potency", "setting": "[1]", "result": 0.001}, {"measurement": "IC50", "setting": "[2]", "result": 10, "unit": "µg/mL"}, {"measurement": "Aggregation", "setting": "Rattus norvegicus [3]", "result": 70.5, "unit": "%"}]}, {"smiles": "O=C(NCCCCCCNC(=O)N(C(=NC1CCCCC1)N1CCCCC1)C1CCCCC1)N(C(=NC1CCCCC1)N1CCCCC1)C1CCCCC1", "values": [{"measurement": "Aggregation", "setting": "Cavia porcellus [4]", "result": 48.7, "unit": "%"}, {"measurement": "Aggregation", "setting": "Cavia porcellus [14]", "result": 47.7, "unit": "%"}, {"measurement": "Relative potency", "setting": "[1]", "result": 0.001}, {"measurement": "Aggregation", "setting": "Rattus norvegicus [15]", "result": 86, "unit": "%"}, {"measurement": "IC50", "setting": "[2]", "result": 10, "unit": "µg/mL"}, {"measurement": "Aggregation", "setting": "Rattus norvegicus [16]", "result": 83.2, "unit": "%"}, {"measurement": "Aggregation", "setting": "Rattus norvegicus [3]", "result": 46.2, "unit": "%"}]}, {"smiles": "O=C(NCCCCCCCCNC(=O)N(C(=NC1CCCCC1)N1CCOCC1)C1CCCCC1)N(C(=NC1CCCCC1)N1CCOCC1)C1CCCCC1", "values": [{"measurement": "Relative potency", "setting": "[1]", "result": 0.001}, {"measurement": "IC50", "setting": "[2]", "result": 10, "unit": "µg/mL"}]}, {"smiles": "O=C(NCCCCCNC(=O)N(C(=NC1CCCCC1)N1CCOCC1)C1CCCCC1)N(C(=NC1CCCCC1)N1CCOCC1)C1CCCCC1", "values": [{"measurement": "Relative potency", "setting": "[1]", "result": 0.001}, {"measurement": "IC50", "setting": "[2]", "result": 10, "unit": "µg/mL"}, {"measurement": "Aggregation", "setting": "Rattus norvegicus [3]", "result": 41, "unit": "%"}]}, {"smiles": "O=C(NCCCCCCNC(=O)N(C(=NC1CCCCC1)N1CCOCC1)C1CCCCC1)N(C(=NC1CCCCC1)N1CCOCC1)C1CCCCC1", "values": [{"measurement": "Inhibition", "setting": "[6]", "result": "38% and 62%"}, {"measurement": "Activity", "setting": "Homo sapiens [7]", "result": "Active"}, {"measurement": "Inhibition", "setting": "[17]", "result": 27, "unit": "%"}, {"measurement": "inhibition at 1 µg/mL", "setting": "[17]; Homo sapiens", "result": 29, "unit": "%"}, {"measurement": "Inhibition", "setting": "[8]", "result": 85, "unit": "%"}, {"measurement": "inhibition at 10 µg/mL", "setting": "[8]", "result": 82, "unit": "%"}, {"measurement": "Relative potency", "setting": "[1]", "result": 0.003}, {"measurement": "IC50", "setting": "[2]", "result": 3.2, "unit": "µg/mL"}, {"measurement": "Aggregation", "setting": "Rattus norvegicus [3]", "result": 80.8, "unit": "%"}]}, {"smiles": "CN(CCN(C)C(=O)N(C(=NC1CCCCC1)N1CCOCC1)C1CCCCC1)C(=O)N(C(=NC1CCCCC1)N1CCOCC1)C1CCCCC1", "values": [{"measurement": "Aggregation", "setting": "Cavia porcellus [4]", "result": 0, "unit": "%"}, {"measurement": "Aggregation", "setting": "Cavia porcellus [18]", "result": 62.7, "unit": "%"}, {"measurement": "Relative potency", "setting": "[1]", "result": 0.003}, {"measurement": "IC50", "setting": "[2]", "result": 3.2, "unit": "µg/mL"}, {"measurement": "Aggregation", "setting": "Rattus norvegicus [3]", "result": 100, "unit": "%"}]}, {"smiles": "O=C(NCCCCCCCCCNC(=O)N(C(=NC1CCCCC1)N1CCOCC1)C1CCCCC1)N(C(=NC1CCCCC1)N1CCOCC1)C1CCCCC1", "values": [{"measurement": "Relative potency", "setting": "[1]", "result": 0.001}, {"measurement": "IC50", "setting": "[2]", "result": 10, "unit": "µg/mL"}]}, {"smiles": "CN(Cc1cccc(CN(C)C(=O)N(C(=NC2CCCCC2)N2CCOCC2)C2CCCCC2)c1)C(=O)N(C(=NC1CCCCC1)N1CCOCC1)C1CCCCC1", "values": [{"measurement": "Relative potency", "setting": "[1]", "result": 0.003}, {"measurement": "IC50", "setting": "[2]", "result": 3.2, "unit": "µg/mL"}, {"measurement": "Aggregation", "setting": "Rattus norvegicus [3]", "result": 38.5, "unit": "%"}]}]}
